# Test results as given in patent US9963467B2, “Boronic acid derivatives and therapeutic uses thereof” (Rempex Pharmaceuticals, Inc., priority 2014, dated 2018).
# What was measured:
# P99 = P99 (Enterobacter cloacae, UniProt P05364); assay: Ki, nitrocefin cleavage by purified enzyme, P99; type: biochemical; conditions: nitrocefin reporter substrate; read-out: Ki (P99, NCF)
# Procedure: (§1) Purified enzymes were mixed with various concentrations of inhibitors in reaction buffer and incubated for 10 min at room temperature. Nitrocefin was added and substrate cleavage profiles were recorded at 490 nm every 10 sec for 10 min.
# Pa AmpC = Pa AmpC (Pseudomonas aeruginosa, UniProt P24735); assay: Ki, nitrocefin cleavage by purified enzyme, Pa AmpC; type: biochemical; conditions: nitrocefin reporter substrate; read-out: Ki (Pa AmpC, NCF)
# Pa AmpC, sequence (P24735 27-397): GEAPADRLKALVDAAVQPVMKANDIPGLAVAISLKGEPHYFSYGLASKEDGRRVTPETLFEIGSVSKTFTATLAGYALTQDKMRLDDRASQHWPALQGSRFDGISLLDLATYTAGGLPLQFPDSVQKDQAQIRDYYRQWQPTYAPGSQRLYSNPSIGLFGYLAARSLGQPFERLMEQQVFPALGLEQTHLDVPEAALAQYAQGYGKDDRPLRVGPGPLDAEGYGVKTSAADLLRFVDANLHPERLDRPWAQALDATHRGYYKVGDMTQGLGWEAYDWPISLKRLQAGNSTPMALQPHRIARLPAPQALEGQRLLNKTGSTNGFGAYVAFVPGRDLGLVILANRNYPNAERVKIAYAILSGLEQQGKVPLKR
# Procedure: Ki values of inhibition of purified class A, C and D enzymes were determined spectrophotometrically using nitrocefin as reporter substrate. Purified enzymes were mixed with various concentrations of inhibitors in reaction buffer and incubated for 10 min at room temperature. Nitrocefin was added and substrate cleavage profiles were recorded at 490 nm every 10 sec for 10 min. These experiments confirmed that the described compounds are inhibitors with a broad-spectrum of activity towards various β-lactamases.
# KPC-2 = KPC-2 (Klebsiella pneumoniae, UniProt Q9F663); assay: Ki, nitrocefin cleavage by purified enzyme, KPC-2; type: biochemical; conditions: nitrocefin reporter substrate; read-out: Ki (KPC-2, NCF)
# KPC-2, sequence (Q9F663 25-293, looked up, species assumed): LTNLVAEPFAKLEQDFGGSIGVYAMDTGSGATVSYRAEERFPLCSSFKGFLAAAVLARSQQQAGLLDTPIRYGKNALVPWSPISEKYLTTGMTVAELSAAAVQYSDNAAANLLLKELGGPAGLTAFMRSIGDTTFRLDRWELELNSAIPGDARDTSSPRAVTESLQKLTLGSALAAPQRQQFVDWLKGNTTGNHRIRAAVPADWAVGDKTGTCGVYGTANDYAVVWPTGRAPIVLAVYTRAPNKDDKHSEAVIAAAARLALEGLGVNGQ
# Procedure: as §1
# ECL1002 [1] = assay: Aztreonam potentiation (MPC@4), ECL1002; type: cell-based; conditions: BLI with aztreonam at 4 μg/mL
# KP1004 (KPC-2) [2] = assay: Aztreonam potentiation (MPC@4), KP1004; type: cell-based; conditions: BLI with aztreonam at 4 μg/mL
# OXA-48 = OXA-48 (Klebsiella pneumoniae, UniProt Q6XEC0); assay: Ki, nitrocefin cleavage by purified enzyme, OXA-48; type: biochemical; conditions: nitrocefin reporter substrate; read-out: Ki (OXA-48, NCF)
# OXA-48, sequence (Q6XEC0 23-265, looked up, species assumed): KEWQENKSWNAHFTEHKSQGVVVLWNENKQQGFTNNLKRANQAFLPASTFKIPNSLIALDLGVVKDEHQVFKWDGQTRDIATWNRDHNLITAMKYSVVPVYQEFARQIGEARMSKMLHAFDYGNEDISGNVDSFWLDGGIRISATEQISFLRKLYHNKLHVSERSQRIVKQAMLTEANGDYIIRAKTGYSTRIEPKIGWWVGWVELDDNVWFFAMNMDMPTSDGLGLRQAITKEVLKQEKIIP
# Procedure: as §1
# ec302 (TEM-10) [3] = assay: Aztreonam potentiation (MPC@4), ec302; type: cell-based; conditions: BLI with aztreonam at 4 μg/mL
# KP1086 (OXA-48) = assay: Biapenem potentiation (MPC@1), KP1086; conditions: BLI with biapenem at 1 μg/mL
# KP1004 (KPC-2) [4] = assay: Biapenem potentiation (MPC@1), KP1004; conditions: BLI with biapenem at 1 μg/mL
# KP1005 (CTX-M-14) [5] = assay: Tigemonam potentiation (MPC@4), KP1005; type: cell-based; conditions: BLI with tigemonam at 4 μg/mL
# KP1009 (CTX-M-15) [6] = assay: organism not typed; type: cell-based
# KP1009 (CTX-M-15) [7] = assay: Tigemonam potentiation (MPC@4), KP1009; type: cell-based; conditions: BLI with tigemonam at 4 μg/mL
# ECL1002 [8] = assay: Tigemonam potentiation (MPC@4), ECL1002; type: cell-based; conditions: BLI with tigemonam at 4 μg/mL
# KP1010 (SHV-12) = assay: Tigemonam potentiation (MPC@4), KP1010; type: cell-based
# SHV-12 = SHV-12 (Klebsiella pneumoniae, UniProt P0AD64, E235K/G234S/L31Q); assay: Ki, nitrocefin cleavage by purified enzyme, SHV-12; type: biochemical; conditions: nitrocefin reporter substrate; read-out: Ki (SHV-12, NCF)
# SHV-12, sequence (P0AD64 22-286 L31Q/G234S/E235K): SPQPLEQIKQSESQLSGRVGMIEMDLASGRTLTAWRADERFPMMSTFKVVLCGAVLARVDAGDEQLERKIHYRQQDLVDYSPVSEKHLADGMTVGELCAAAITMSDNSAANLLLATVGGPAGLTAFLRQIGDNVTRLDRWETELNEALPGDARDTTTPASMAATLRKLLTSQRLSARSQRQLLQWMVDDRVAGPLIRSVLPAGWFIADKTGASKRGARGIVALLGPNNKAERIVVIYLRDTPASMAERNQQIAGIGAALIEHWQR
# Procedure: as §1
# ec308 (SHV-5) = assay: Tigemonam potentiation (MPC@4), ec308; type: cell-based
# CTX-M-14 = CTX-M-14 (Escherichia coli, UniProt Q9L5C7); assay: Ki, nitrocefin cleavage by purified enzyme, CTX-M-14; type: biochemical; conditions: nitrocefin reporter substrate; read-out: Ki (CTX-M-14, NCF)
# CTX-M-14, sequence (Q9L5C7 29-291): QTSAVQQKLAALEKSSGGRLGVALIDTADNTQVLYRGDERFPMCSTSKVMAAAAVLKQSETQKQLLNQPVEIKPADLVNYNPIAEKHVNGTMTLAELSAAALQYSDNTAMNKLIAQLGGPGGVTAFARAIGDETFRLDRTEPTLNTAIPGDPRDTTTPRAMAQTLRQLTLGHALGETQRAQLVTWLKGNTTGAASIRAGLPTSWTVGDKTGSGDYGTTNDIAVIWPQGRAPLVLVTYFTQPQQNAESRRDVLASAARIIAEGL
# Procedure: as §1
# EC1010 (CMY-6) [9] = assay: Tigemonam potentiation (MPC@4), EC1010; type: cell-based; conditions: BLI with tigemonam at 4 μg/mL
# EC1010 (CMY-6) [10] = assay: organism not typed; type: cell-based
# ec302 (TEM-10) [11] = assay: Tigemonam potentiation (MPC@4), ec302; type: cell-based
# KP1005 (CTX-M-14) [12] = assay: Aztreonam potentiation (MPC@4), KP1005; type: cell-based; conditions: BLI with aztreonam at 4 μg/mL
# [13] = Monomer content of pH adjusted aqueous solutions (LC-UV); type: physicochemical; conditions: 1 mg/mL aqueous salt solution, pH adjusted to 7.6 to 8, LC-UV
# Procedure: Boronic acid containing compounds are known to undergo oligomerization. The presence of oligomers can greatly complicate drug development, as they represent new chemical species whose content must be controlled and qualified by testing in toxoicology studies. The monomer content of compounds was evaluated by adjusting aqueous solutions to physiological pH at various concentrations. The monomer content of pH adjusted solutions was measured using LC-UV. Test compounds were weighed out into a 1.5 mL Eppendorf tube. A solution of water was prepared in 1.00 mg/mL, 10.0 mg/mL or 100 mg/mL concentrations of the compound based on active fraction. A volume 20 uL was subtracted to allow room for addition of acid or base to adjust pH. The solution pH was measured. The pH was then adjusted through addition of acid or base as necessary until the reading was in the 7.6 to 8 range. A final pH measurement was made after ensuring all the compound was in solution. The solution was injected onto LC-UV in 0.1 uL to 5 uL volume within less than half an hour after the time the sample was prepared. Elution was done using 0.1% TFA in water for mobile phase A and 0.085% TFA in methanol for mobile phase B on an Excel ACE 5 Super C18 2.1×100 mm column at 0.6 ml/min flow rate with 9 min gradient, 3.9 minute hold at 90% B and 18 minute run time. The absorption was measured at 220, 254 and 300 nm with a 4 nm bandwidth.
# P99, sequence (P05364 21-381): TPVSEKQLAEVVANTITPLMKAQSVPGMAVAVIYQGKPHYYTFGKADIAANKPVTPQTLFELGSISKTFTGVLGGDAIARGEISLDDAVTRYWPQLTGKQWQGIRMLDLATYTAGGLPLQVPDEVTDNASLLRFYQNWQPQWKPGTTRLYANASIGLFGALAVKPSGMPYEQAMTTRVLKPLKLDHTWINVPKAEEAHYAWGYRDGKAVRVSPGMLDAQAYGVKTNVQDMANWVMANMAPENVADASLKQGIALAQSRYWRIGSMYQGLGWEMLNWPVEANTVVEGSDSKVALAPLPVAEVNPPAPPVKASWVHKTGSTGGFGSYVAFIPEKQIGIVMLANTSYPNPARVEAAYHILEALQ
SMILES,Ki (P99),Ki (Pa AmpC),Ki (KPC-2),AZT MPC4 ECL1002 (ECL1002 [1]),AZT MPC4 KPC-2 KP1004 (KP1004 (KPC-2) [2]),Ki (OXA-48),AZT MPC4 TEM-10 ec302 (ec302 (TEM-10) [3]),BPM MPC1 OXA-48 KP1086 (KP1086 (OXA-48)),BPM MPC1 KP1004 KPC-2 (KP1004 (KPC-2) [4]),TIG MPC4 CTX-M-14 KP1005 (KP1005 (CTX-M-14) [5]),TIG MPC4 CTX-M-15 KP1009 (KP1009 (CTX-M-15) [7]),TIG MPC4 ECL1002 (ECL1002 [8]),TIG MPC4 SHV-12 KP1010 (KP1010 (SHV-12)),Ki (SHV-12),TIG MPC4 SHV-5 ec308 (ec308 (SHV-5)),Ki (CTX-M-14),TIG MPC4 CMY-6 EC1010 (EC1010 (CMY-6) [9]),AZT MPC4 CMY-6 EC1010 (EC1010 (CMY-6) [10]),TIG MPC4 TEM-10 ec302 (ec302 (TEM-10) [11]),also measured
"CSCC(=O)N[C@H]1Cc2ccc(OCCO)c(C(=O)O)c2OB1O [Compound 20, (R)-2-hydroxy-7-(2-hydroxyethoxy)-3-(2-(methylthio)acetamido)-3,4-dihydro-2H-benzo[e][1,2]oxaborinine-8-carboxylic acid]",> 10 nM,> 10 nM,> 10 nM,Y (MIC of 1 μg/mL to 10 μg/mL),Y (MIC of 1 μg/mL to 10 μg/mL),< 1 nM,Y (MIC of 1 μg/mL to 10 μg/mL),Z (MIC of greater than 10 μg/mL),X (MIC of less than 1 μg/mL),Y (MIC of 1 μg/mL to 10 μg/mL),X (MIC of less than 1 μg/mL),X (MIC of less than 1 μg/mL),X (key: X: MIC of less than 1 μg/mL; Y: MIC of 1 μg/mL to 10 μg/mL; Z: MIC of greater than 10 μg/mL),< 1 nM,X (key: X: MIC of less than 1 μg/mL; Y: MIC of 1 μg/mL to 10 μg/mL; Z: MIC of greater than 10 μg/mL),< 1 nM,X (MIC of less than 1 μg/mL),Y (key: X: MIC of less than 1 ng/mL; Y: MIC of 1 μg/mL to 10 μg/mL; Z: MIC of greater than 10 μg/mL),Z (key: X: MIC of less than 1 ng/mL; Y: MIC of 1 μg/mL to 10 μg/mL; Z: MIC of greater than 10 μg/mL),AZT MPC4 CTX-M-15 KP1009 (KP1009 (CTX-M-15) [6]): Y (key: X: MIC of less than 1 ng/mL; Y: MIC of 1 μg/mL to 10 μg/mL; Z: MIC of greater than 10 μg/mL)
"CSCC(=O)N[C@H]1Cc2cc(F)c(F)c(C(=O)O)c2OB1O [Compound 36, (R)-6,7-difluoro-2-hydroxy-3-(2-(methylthio)acetamido)-3,4-dihydro-2H-benzo[e][1,2]oxaborinine-8-carboxylic acid]",> 10 nM,> 10 nM,> 10 nM,Y (MIC of 1 μg/mL to 10 μg/mL),Y (MIC of 1 μg/mL to 10 μg/mL),< 1 nM,Y (MIC of 1 μg/mL to 10 μg/mL),Y (MIC of 1 μg/mL to 10 μg/mL),X (MIC of less than 1 μg/mL),X (MIC of less than 1 μg/mL),X (MIC of less than 1 μg/mL),X (MIC of less than 1 μg/mL),X (key: X: MIC of less than 1 μg/mL; Y: MIC of 1 μg/mL to 10 μg/mL; Z: MIC of greater than 10 μg/mL),< 1 nM,X (key: X: MIC of less than 1 μg/mL; Y: MIC of 1 μg/mL to 10 μg/mL; Z: MIC of greater than 10 μg/mL),< 1 nM,X (MIC of less than 1 μg/mL),Y (key: X: MIC of less than 1 ng/mL; Y: MIC of 1 μg/mL to 10 μg/mL; Z: MIC of greater than 10 μg/mL),Y (key: X: MIC of less than 1 ng/mL; Y: MIC of 1 μg/mL to 10 μg/mL; Z: MIC of greater than 10 μg/mL),–
"O=C(O)CC(=O)N[C@H]1Cc2ccc(F)c(C(=O)O)c2OB1O [Compound 4, (R)-3-(2-carboxyacetamido)-7-fluoro-2-hydroxy-3,4-dihydro-2H-benzo[e][1,2]oxaborinine-8-carboxylic acid]",> 10 nM,> 10 nM,> 10 nM,Y (MIC of 1 μg/mL to 10 μg/mL),Y (MIC of 1 μg/mL to 10 μg/mL),< 1 nM,Y (MIC of 1 μg/mL to 10 μg/mL),Z (MIC of greater than 10 μg/mL),X (MIC of less than 1 μg/mL),Y (MIC of 1 μg/mL to 10 μg/mL),X (MIC of less than 1 μg/mL),X (MIC of less than 1 μg/mL),Y (key: X: MIC of less than 1 ng/mL; Y: MIC of 1 μg/mL to 10 μg/mL; Z: MIC of greater than 10 μg/mL),< 1 nM,Y (key: X: MIC of less than 1 ng/mL; Y: MIC of 1 μg/mL to 10 μg/mL; Z: MIC of greater than 10 μg/mL),< 1 nM,X (MIC of less than 1 μg/mL),Y (key: X: MIC of less than 1 ng/mL; Y: MIC of 1 μg/mL to 10 μg/mL; Z: MIC of greater than 10 μg/mL),Z (key: X: MIC of less than 1 ng/mL; Y: MIC of 1 μg/mL to 10 μg/mL; Z: MIC of greater than 10 μg/mL),AZT MPC4 CTX-M-14 KP1005 (KP1005 (CTX-M-14) [12]): Y (MIC of 1 μg/mL to 10 μg/mL)
"CSCC(=O)N[C@H]1Cc2ccc(SC3CNC3)c(C(=O)O)c2OB1O [Compound 11, (R)-7-(azetidin-3-ylthio)-2-hydroxy-3-(2-(methylthio)acetamido)-3,4-dihydro-2H-benzo oxaborinine-8-carboxylic acid]",> 10 nM,> 10 nM,> 10 nM,Y (MIC of 1 μg/mL to 10 μg/mL),Y (MIC of 1 μg/mL to 10 μg/mL),1 to 10 nM,Y (MIC of 1 μg/mL to 10 μg/mL),Y (MIC of 1 μg/mL to 10 μg/mL),X (MIC of less than 1 μg/mL),X (MIC of less than 1 μg/mL),Y (MIC of 1 μg/mL to 10 μg/mL),X (MIC of less than 1 μg/mL),X (key: X: MIC of less than 1 μg/mL; Y: MIC of 1 μg/mL to 10 μg/mL; Z: MIC of greater than 10 μg/mL),1 to 10 nM,X (key: X: MIC of less than 1 μg/mL; Y: MIC of 1 μg/mL to 10 μg/mL; Z: MIC of greater than 10 μg/mL),1 to 10 nM,X (MIC of less than 1 μg/mL),Y (key: X: MIC of less than 1 ng/mL; Y: MIC of 1 μg/mL to 10 μg/mL; Z: MIC of greater than 10 μg/mL),Z (key: X: MIC of less than 1 ng/mL; Y: MIC of 1 μg/mL to 10 μg/mL; Z: MIC of greater than 10 μg/mL),% Monomer in 1 mg/mL salt solution [13]: 88.0%
